The values below come from patent US20220315908A1, “NOVEL GARDNERELLA ENDOLYSINS AND USES THEREOF” (priority 2019, published 2022).

Molecules are shown by their SMILES. In brackets after ≈: the same amount, converted by molar mass.

Holding throughout (experiment): MIC and MBC microbroth dilution
The subject of one test is G. piotii (Gv_17). The format is cell-based, Gardnerella piotii. The settings on record: for MIC / MBC: Gardnerella piotii; for MIC: 48 h. On the procedure: (§1) One of the main deficiencies in the treatment of BV is the high rate of recurrence in many women, which leads to repeated administration of antibiotics and concomitant destabilization of the microbiome and other side effects. The minimal inhibitory concentration (MIC) and minimal bactericidal concentration (MBC) on Gardnerella cells of the strains also used for the endolysin activity assays were then measured using the method described in Reference Example 6 and 7. […] Essentially, Gardnerella suspensions at 2.5×10^7 CFU/ml were incubated with the concentration of antibiotics as indicated and incubated for 48 h at 37° C. under anaerobic conditions. […] OD(610) was measured at the beginning and the end of the experiment. At the end of the experiment, 2 ul of each reaction mix was spotted on agar to determine the MBC.
(§2) The conditions under which MIC and MBC were measured are more rigorous than the standard.
(§3) Bacteria were plated from cryo stock on BD Choc Agar plates (Gardnerella) and incubated at 37° C. for 48 h under anaerobic conditions. Colonies were scraped from the plate, resuspended in Hardy Broth or NYC-III-HS-pH 5.0, and the suspension adjusted to OD (610 or 620 nm as indicated) 0.05. It has to be noted that two Tecan Microplate readers, having respectively a 610 nm or 620 nm filter, have been used interchangeably in the experiments. Although it doesn't make any difference for the experiments, the exact wavelength used is specified in each example. Antibiotics were prepared as 20× stocks for each of the required final concentrations. 95 μl of cell suspension was mixed with 5 μl antibiotics dilution in a 384-well plate. OD (610-620 as indicated) at the start of the reaction was measured, then the plate was incubated at 37° C. for 48 h under anaerobic conditions. After that, the OD (610-620 as indicated) was measured again for MIC determination, where MIC was defined as the lowest concentration of antibiotic where the OD (610-620 as indicated) was not above the level measured at the beginning of the experiment. After measuring OD, 2 μl of each well were spotted on a NYC-III+HS Agar plate. The plates were then incubated for further 48 h at 37° C. under anaerobic conditions. After incubation, cell growth on each spot was evaluated, and the MBC defined as the lowest concentration of antibiotics where no bacteria grew on the plate. The experiments were conducted in triplicate for each condition. In the second round of MIC and MBC experiments with antibiotics the Gardnerella cell suspension was adjusted to the McFarland standard 0.5 (approximately OD (610) 0.07) and then diluted 1:75 according to the CLSI (Clinical and Laboratory Standards Institute) standards. Antibiotics were prepared according to the CLSI standards and 50 μl of cell suspension was mixed in a 96-well plate with 50 μl antibiotics. Otherwise the MIC and MBC was determined as described above. For the MIC and MBC determination of the domain swapped endolysin H2B10 50 μl of Gardnerella cell suspension was mixed in a 96-well plate with 50 μl of H2B10 containing solution, which where serially diluted 1:1. OD610 at the start of the reaction was measured, then the plate was incubated at 37° C. for 48 h under anaerobic conditions. After that, the OD(610) was measured again for MIC determination, where MIC was defined as the lowest concentration of H2B10 where the OD was not or only slightly above the level measured at the beginning of the experiment.

The subject of the next test is G. leopoldii (Gv_11). The format is cell-based, Gardnerella leopoldii. The note with it: for MIC / MBC: Gardnerella leopoldii; for MIC: 48 h. On the procedure: as §1, §2
(§4) Example 7—Activity assays of a representative (H2B10) of domain swapped endolysins on the growth in suspension of different Gardnerella strains. […] The conditions under which MBC was measured are more rigorous than the standard. […] In general, it is known, that antibiotics only insufficiently eradicate the Gardnerella biofilm, a hallmark of BV, which is one suspected reason for the reported very high recurrence rate of BV. Despite leaving residual viable biofilm, antibiotics wipe parts of the beneficial organisms of the vaginal microbiome which then opens an ecological niche for other pathogens, e.g. fungi.
as §3, with “above.” for “above. For the MIC and MBC determination of the domain swapped endolysin H2B10 50 μl of Gardnerella cell suspension was mixed in a 96-well plate with 50 μl of H2B10 containing solution, which where serially diluted 1:1. OD610 at the start of the reaction was measured, then the plate was incubated at 37° C. for 48 h under anaerobic conditions. After that, the OD(610) was measured again for MIC determination, where MIC was defined as the lowest concentration of H2B10 where the OD was not or only slightly above the level measured at the beginning of the experiment.”

The next test deals with G. vaginalis (Gv_9). The format is cell-based, Gardnerella vaginalis. The note with it: for MIC / MBC: Gardnerella vaginalis; for MIC: 48 h. The protocol: as §1, §2, §4
as §3, with “above.” for “above. For the MIC and MBC determination of the domain swapped endolysin H2B10 50 μl of Gardnerella cell suspension was mixed in a 96-well plate with 50 μl of H2B10 containing solution, which where serially diluted 1:1. OD610 at the start of the reaction was measured, then the plate was incubated at 37° C. for 48 h under anaerobic conditions. After that, the OD(610) was measured again for MIC determination, where MIC was defined as the lowest concentration of H2B10 where the OD was not or only slightly above the level measured at the beginning of the experiment.”

Setting [1] is: first round: […]10^7 CFU/ml, Hardy broth, 384-well, 48 h 37° C. anaerobic.
Where [2] appears, read: second round: 1×10^5-1×10^6 CFU/ml (CLSI), NYC-III broth, 96-well, 48 h anaerobic.
The mark [3] stands for this setting: first round: […]10^7 CFU/ml, minimal concentration fully eradicating the suspension.
[4] abbreviates: second round: 1×10^5-1×10^6 CFU/ml (CLSI), NYC-III broth, 96-well.

Take `Cc1ncc([N+](=O)[O-])n1CCO` [Metronidazole]: the MIC was 64 µg/mL (≈ 374 µM) in the test on G. piotii (Gv_17) (setting [1]); 16 µg/mL (≈ 93.5 µM) in the test with G. piotii (Gv_17) (setting [2]); above 128 µg/mL against G. leopoldii (Gv_11) (setting [1]); 128 µg/mL (≈ 748 µM) in the test on G. leopoldii (Gv_11) (setting [2]); 128 µg/mL (≈ 748 µM) against G. vaginalis (Gv_9) (setting [1]); 8 µg/mL (≈ 46.7 µM) in the test on G. vaginalis (Gv_9) (setting [2]). Also, the minimal bactericidal concentration (MBC) was above 128 µg/mL with G. piotii (Gv_17) (setting [3]); 64 µg/mL (≈ 374 µM) in the test with G. piotii (Gv_17) (setting [4]); above 128 µg/mL with G. leopoldii (Gv_11) (setting [4]); above 128 µg/mL in the test with G. leopoldii (Gv_11) (first round: 2.5×10^7 CFU/ml, minimal concentration fully eradicating the suspension); above 128 µg/mL with G. vaginalis (Gv_9) (setting [3]); 16 µg/mL (≈ 93.5 µM) against G. vaginalis (Gv_9) (setting [4]). Moreover, the “resistance class of MIC, Metronidazole” value in the test with G. piotii (Gv_17) (first round), with G. leopoldii (Gv_11) (first round) and with G. vaginalis (Gv_9) (first round) was “R (>=32 μg/mi for Metronidazole)” throughout. Besides, the “resistance class given with MBC, Metronidazole” value with G. piotii (Gv_17) (second round), in the test with G. leopoldii (Gv_11) (second round) and with G. vaginalis (Gv_9) (second round) was “R (>=32 μg/mi for Metronidazole)” in each case. Also, the “resistance class printed with MIC, Metronidazole” value with G. leopoldii (Gv_11) (second round) is given as “R (>=32 μg/mi for Metronidazole)”.
